{"source": "patent US8629277B2", "about": "“Styrenyl 1,2,4-oxadiazole compounds” (Piramal Enterprises Limited, priority 2010, dated 2014)", "key": {"TGFβ": {"system": "TGFβ", "experiment": "TGFβ assay, Western blot analysis in Ba/F3 Bcr-Abl/T315I cells", "assay_type": "cell-based", "details": "T315I cell line, 3×IC50, 72 h, FIG. 3", "method": "TGFβ is a prime candidate for maintaining the CML stem cells in a non-cycling state. […] TGFβ plays a vital role in the preservation of the malignant progenitor population, and is partially responsible for the resistance to treatments targeting Bcr-Abl observed in a proportion of CML patients.\nThe Western Blot assay was carried out as in reference, Analytical Biochemistry, 1981, 112, 2, 195-203.\nWestern blot analysis was performed to decipher the mechanism of action of compounds of the present invention. […] The cells were incubated in a humidified incubator for 2-4 h at 37° C. […] Cells were then incubated for 72 h. Following the incubation, cells were harvested, washed with ice-cold phosphate buffered saline (PBS) and lysed with cold Cell Lytic buffer (Sigma Aldrich) supplemented with complete protease inhibitor cocktail (Roche, Germany). The protein extracts were obtained after centrifugation at 14,000 g at 4° C. (30 min). Aliquots of the resulting extracts were analyzed for their protein content using Bradford Reagent (Sigma) as per the manufacturer's instructions. In all the experiments, equivalent amounts of protein (70 μg) were loaded on 7.5%-10% Tris-glycine gels and resolved at 100 V for 2 h in a buffered solution (24.9 mM Tris base, 250 mM glycine, 0.1% SDS (sodium dodecyl sulfate)). […]"}, "CRKL protein [1]": {"system": "CRKL protein", "experiment": "Inhibition of phosphorylation of CRKL protein, Western blot, E255V cell line", "assay_type": "cell-based", "details": "72 h, FIG. 5, FIG. 6B", "method": "(§1) Phospho-CRKL monitoring has been recognized as a prognostic marker in CML patients treated with first and second generation Bcr-Abl inhibitors (Haematologica, 2008, 93, 5, 765-769). The assay was carried out using Western blot analysis according to the reference, Analytical Biochemistry, 1981, 112, 2, 195-203, with certain modifications.\n(§2) Western blot analysis was performed to decipher the mechanism of action of compounds of the present invention. […] The cells were incubated in a humidified incubator for 2-4 h at 37° C. Subsequently, cells were treated with respective concentrations of the compounds. Cells were then incubated for 72 h. Following the incubation, cells were harvested, washed with ice-cold phosphate buffered saline (PBS) and lysed with cold Cell Lytic buffer (Sigma Aldrich) supplemented with complete protease inhibitor cocktail (Roche, Germany). The protein extracts were obtained after centrifugation at 14,000 rpm at 4° C. (30 min). Aliquots of the resulting extracts were analyzed for their protein content using Bradford Reagent (Sigma) as per the manufacturer's instructions. Equivalent protein samples (70 μg) were loaded on 10% Tris-glycine gels and resolved at 100 V for 2 h in a buffered solution (24.9 mM Tris base, 250 mM glycine, 0.1% SDS (sodium dodecyl sulfate)). […]"}, "CRKL protein [2]": {"system": "CRKL protein", "experiment": "Inhibition of phosphorylation of CRKL protein, Western blot, M351T cell line", "assay_type": "cell-based", "details": "FIG. 6B", "method": "as §1, §2"}, "CRKL protein [3]": {"system": "CRKL protein", "experiment": "Inhibition of phosphorylation of CRKL protein, Western blot, Y253H cell line", "assay_type": "cell-based", "details": "FIG. 6B", "method": "as §1, §2"}, "Ba/F3 Bcr-Abl/WT": {"system": "Ba/F3 Bcr-Abl/WT", "experiment": "In-vivo efficacy in imatinib-sensitive xenograft model in SCID mice", "details": "200 mpk b.i.d., p.o.", "method": "In-vivo efficacy testing of compounds of the present invention in imatinib resistant and imatinib sensitive tumor models was carried out according to the reference Cancer Research, 2002, 62, 7149-7153.\nCell lines Ba/F3 transfectants expressing full-length wild type imatinib sensitive (Ba/F3 Bcr-Abl/WT) or mutated imatinib resistant (Ba/F3 Bcr-Abl/T315I) were used in this study. These recombinant cell lines were licensed from Dr. Brian Druker's laboratory, Howard Hughes Medical Institute, Oregon Health and Science University Cancer Institute, Portland, Oreg., USA.\nRequired compound was weighed and admixed with 0.5% (w/v) carboxymethylcellulose (CMC) and triturated with Tween-20 (secundum artum) with gradual addition of water to make up the final concentration. Imatinib mesylate was used as a standard.\nA group of 110 Severely Combined Immune-Deficient (SCID strain-CBySmn.CB17-Prkdc^scid/J, The Jackson Laboratory, Stock #001803) male mice, 5-6 weeks old, weighing ˜20 g, were used.\nBa/F3 Bcr-Abl/WT cells and Ba/F3 Bcr-Abl/T315I cells were grown in RPMI1640 medium containing 10% fetal calf serum in 5% CO2 incubator at 37° C. Cells were pelleted by centrifugation at 1000-rpm for 10 minutes. […] Tumor size was recorded at 2-5 day intervals. […] Tumor growth in compound treated animals is calculated as T/C (Treated/Control)×100% and Growth inhibition Percent (GI %) was [100−T/C %]."}}}
{"compound": "CCCc1noc(C=Cc2ccc(O)c(O)c2)n1", "note": "[Compound of Example 3, 4-[2-(3-Propyl-[1,2,4]oxadiazol-5-yl)-vinyl]-benzene-1,2-diol]", "values": [{"measurement": "p-Smad2 and p-Smad3, effector target molecules of TGFβ signaling", "setting": "TGFβ", "result": "strongly downregulated"}, {"measurement": "phosphorylation of CRKL protein (Tyr-207)", "setting": "CRKL protein [1]", "result": "inhibit"}, {"measurement": "phospho-CRKL", "setting": "CRKL protein [2]", "result": "inhibit"}, {"measurement": "phospho-CRKL", "setting": "CRKL protein [3]", "result": "inhibit"}, {"measurement": "Tumor growth inhibition percent (% GI) Ba/F3 Bcr-Abl/WT", "setting": "Ba/F3 Bcr-Abl/WT", "result": 63, "unit": "%"}]}
{"compound": "Oc1ccc(C=Cc2nc(Cc3ccccc3)no2)cc1O", "note": "[Compound of Example 4, 4-[2-(3-Benzyl-[1,2,4]oxadiazol-5-yl)-vinyl]-benzene-1,2-diol]", "values": [{"measurement": "p-Smad2 and p-Smad3, effector target molecules of TGFβ signaling", "setting": "TGFβ", "result": "strongly downregulated"}, {"measurement": "Tumor growth inhibition percent (% GI) Ba/F3 Bcr-Abl/WT", "setting": "Ba/F3 Bcr-Abl/WT", "result": 36, "unit": "%"}]}
